Test results reported in patent publication US10689394B2, “Thieno[2,3-b]pyridine derivative, quinoline derivative, and use thereof” (The University of Tokyo, priority 2016, dated 2020).

Each compound was assayed against T1, binding between ALS-related mutant SOD1 (Flag-SOD1 G93A) and Derlin-1 (Derlin-1-HA) (Homo sapiens, UniProt P00441+Q9BUN8, G94A) (assay: Cell-based co-immunoprecipitation assay of mutant SOD1 (G93A)-Derlin-1 binding). Conditions: assay concentration 2.6 μM; HEK293A cells overexpressing Flag-SOD1 G93A and Derlin-1-HA.
T1 construct: expressed in transfected cells; host or cells: HEK293A
Set-up: key to Activity value (score): a compound exhibiting no inhibitory activity is set at 0; a compound exhibiting inhibitory activity is set at 1; a compound exhibiting significant inhibitory activity is set at 2; a compound having higher inhibitory activity than the compound of Example 1 is set at 3
Procedure: As cells, human embryonic kidney-derived, Human Embryonic Kidney 293A (HEK293A) cells were used. The cells were cultured in High Glucose Dulbecco's modified Eagle's medium (DMEM: 4.5 mg/ml glucose, Sigma) supplemented with complement-inactivated 10% fetal bovine serum (FBS, Vitromex) and 100 units/mL Penicillin G (Meiji), which was placed in an incubator set at conditions of 37° C. and 5% CO2.
Transfection into the HEK293A cells was carried out using PEI-Max (Polyscience) at a ratio of 3 μL of PEI-Max to 1 μg of plasmid. DMEM was mixed with PEI-Max, and the mixture was then left at rest for 5 minutes. Thereafter, the reaction mixture was added to the plasmid DNA dissolved in DMEM, and the thus obtained mixture was further left at rest for 15 minutes. After seeding, the culture was carried out for 12 to 24 hours, and the resultant was then added to a culture medium of cells, in which the medium had been exchanged with DMEM supplemented only with 10% FBS.
pcDNA3.0-Derlin-1-HA, pcDNA3.0-Flag-SOD1 G93A, and 123 types of other mutants.
In the lysis of HEK293A cells for use in a co-immunoprecipitation experiment, an IP lysis buffer (20 mM Tris-HCl (pH 7.5), 150 mM NaCl, 10 mM EDTA (pH 8.0), 1% Triton-X 100, 5 μg/mL leupeptin, and 1 mM phenylmethylsulfonyl fluoride) was used.
After the transfection on a 24-well plate, the cells were cultured for 12 hours or 24 hours, and the obtained cell culture was exchanged with 200 μL of medium. Thereafter, 1% DMSO or various types of compounds having each different concentration were added into the culture. Thirty-six hours or twenty-four hours later, the cells were incubated in the IP lysis buffer (300 μL/well) at 4° C. for 25 minutes, so that the cells were lysed. The cell lysate was centrifuged at 4° C. at 15000 rpm for 10 minutes, and a supernatant was then recovered. To this supernatant, Anti-Flag M2 affinity gel was added in a liquid amount of 20 μL, and they were allowed to react with each other by subjecting the obtained mixture to inversion mixing at 4° C. for 25 minutes. After completion of the reaction, a supernatant was removed, and the residue was washed twice with High salt wash buffer (1% Triton X 100, 500 mM NaCl, 20 mM Tris-HCl (pH 7.5), and 5 mM EGTA), and was then washed once with Low salt wash buffer (150 mM NaCl, 20 mM Tris-HCl (pH 7.5), and 5 mM EGTA). Finally, 50 μL of a 2×SDS sample buffer was added to the resultant, and the obtained mixture was then boiled at 98° C. for 3 minutes to obtain an SDS-PAGE sample. Regarding the lysate, a 2×SDS sample buffer was added in an amount equal to the supernatant, and the obtained mixture was then boiled at 98° C. for 3 minutes to obtain an SDS-PAGE sample.
After completion of SDS-PAGE, a protein was transferred from the gel into a polyvinylidene difluoride membrane (PVDF) ([…], Pall), and was then blocked with TBS-T (150 mM NaCl, 50 mM Tris-HCl (pH 8.0), and 0.05% Tween 20) supplemented with 5% skimmed milk at room temperature for 2 hours or more. Thereafter, a primary antibody diluted with TBS-T supplemented with 5% bovine serum albumin and 0.1% NaN3 was allowed to bind to each molecule on the PVDF membrane at 4° C. for 12 hours or more. After completion of the reaction, a secondary antibody (HRP-linked 2nd antibody) diluted with TBS-T supplemented with 5% skimmed milk was allowed to bind to the primary antibody at room temperature for 1 hour. Thereafter, the resultant was washed with TBS-T for 15 minutes, 3 or more times, and detection was then carried out using an enhanced chemiluminescence (ECL) system.
With regard to the compounds of the present invention (Example Compound 1 to Example Compound 47), whether or not the present compound can inhibit the binding between ALS-related mutant SOD1 and Derlin-1 in a cell by being added into a cell culture solution was examined according to a co-immunoprecipitation experiment. […]

T1 sequence (P00441 whole entry G94A, species assumed): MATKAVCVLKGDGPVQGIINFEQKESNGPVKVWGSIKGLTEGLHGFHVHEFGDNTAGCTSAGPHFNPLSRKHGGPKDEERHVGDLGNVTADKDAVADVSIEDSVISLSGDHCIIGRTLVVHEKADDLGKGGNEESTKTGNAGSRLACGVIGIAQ
T1 sequence (Q9BUN8 whole entry, species assumed, stated change not applied): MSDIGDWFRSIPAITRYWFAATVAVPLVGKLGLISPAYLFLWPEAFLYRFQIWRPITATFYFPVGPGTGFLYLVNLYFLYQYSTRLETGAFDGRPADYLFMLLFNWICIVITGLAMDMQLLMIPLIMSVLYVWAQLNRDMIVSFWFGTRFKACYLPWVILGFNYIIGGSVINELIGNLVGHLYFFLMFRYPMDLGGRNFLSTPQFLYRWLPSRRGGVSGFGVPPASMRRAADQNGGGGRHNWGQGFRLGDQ

For `Nc1c(C(=O)Nc2ccncc2)sc2nc(-c3ccccn3)ccc12` [Example 6, 3-amino-N-(4-pyridinyl)-6-(2-pyridinyl)thieno[2,3-b]pyridine-2-carboxamide], the “Activity value (score)” value was 1.

Same assay, conditions: assay concentration 5 μM; HEK293A cells overexpressing Flag-SOD1 G93A and Derlin-1-HA

With `CC#CCN(C(=O)c1sc2nc(-c3cccnc3)ccc2c1N)c1ccccc1` [Example 9, 3-amino-N-(2-butynyl)-N-phenyl-6-(3-pyridinyl)thieno[2,3-b]pyridine-2-carboxamide] the “Activity value (score)” value was 1.

Same assay, conditions: assay concentration 20 μM; HEK293A cells overexpressing Flag-SOD1 G93A and Derlin-1-HA

`C#CCN(C(=O)c1sc2nc(-c3cccnc3)ccc2c1N)c1ccc(F)cc1` [Example 35, 3-amino-N-(4-fluorophenyl)-N-(prop-2-yn-1-yl)-6-(3-pyridinyl)thieno[2,3-b]pyridine-2-carboxamide] and `C=C(C)CN(C(=O)c1sc2nc(-c3cccnc3)ccc2c1N)c1ccc(F)cc1` [Example 34, 3-amino-N-(4-fluorophenyl)-N-(2-methylprop-2-en-1-yl)-6-(3-pyridinyl)thieno[2,3-b]pyridine-2-carboxamide] are the same in “Activity value (score)” value: 1 for the first, 1 for the second.

`Cc1cccc(C)c1NC(=O)c1sc2nc(-c3cccnc3)ccc2c1N` [Example 25, 3-amino-N-(2,6-dimethylphenyl)-6-(3-pyridinyl)thieno[2,3-b]pyridine-2-carboxamide] and `Nc1c(C(=O)Nc2ccc(I)cc2)sc2nc(-c3cccnc3)ccc12` [Example 27, 3-amino-N-(4-iodophenyl)-6-(3-pyridinyl)thieno[2,3-b]pyridine-2-carboxamide] are the same in “Activity value (score)” value: 1 for the first, 1 for the second.

`Nc1c(C(=O)N(Cc2ccccc2)c2ccccc2)sc2nc(-c3cccnc3)ccc12` [Example 37, 3-amino-N-benzyl-N-phenyl-6-(3-pyridinyl)thieno[2,3-b]pyridine-2-carboxamide] and `CCCN(C(=O)c1sc2nc(-c3cccnc3)ccc2c1N)c1ccccc1` [Example 10, N-n-propyl-3-amino-N-phenyl-6-(3-pyridinyl)thieno[2,3-b]pyridine-2-carboxamide] are the same in “Activity value (score)” value: 2 for the first, 2 for the second.

`C=CCN(C(=O)c1sc2nc(-c3cccnc3)ccc2c1N)c1cccc(S(F)(F)(F)(F)F)c1` [Example 21, N-allyl-3-amino-N-(3-(pentafluoro-λ^6-sulfanyl)phenyl)-6-(3-pyridinyl)thieno[2,3-b]pyridine-2-carboxamide] and `C=CCN(C(=O)c1sc2nc(-c3cccnc3)ccc2c1N)c1cccc(F)c1F` [Example 16, N-allyl-3-amino-N-(2,3-difluorophenyl)-6-(3-pyridinyl)thieno[2,3-b]pyridine-2-carboxamide] are the same in “Activity value (score)” value: 2 for the first, 2 for the second.

Compared with `CC(C)=CCN(C(=O)c1sc2nc(-c3cccnc3)ccc2c1N)c1ccncc1` [Example 39, 3-amino-N-prenyl-N-(4-pyridinyl)-6-(3-pyridinyl)thieno[2,3-b]pyridine-2-carboxamide], `CC(C)=CCN(C(=O)c1sc2nc(-c3cccnc3)ccc2c1N)c1ccccc1` [Example 13, N-(3-methyl-2-butenyl)-3-amino-N-phenyl-6-(3-pyridinyl)thieno[2,3-b]pyridine-2-carboxamide] is higher in “Activity value (score)” value: 1 for the first, 2 for the second.

Compared with `C#CCN(C(=O)c1sc2nc(-c3cccnc3)ccc2c1N)c1ccccc1` [Example 2, N-propargyl-3-amino-N-phenyl-6-(3-pyridinyl)thieno[2,3-b]pyridine-2-carboxamide], `C#CCOC/C=C\CN(C(=O)c1sc2nc(-c3cccnc3)ccc2c1N)c1ccccc1` [Example 36] is lower in “Activity value (score)” value: 2 for the first, 1 for the second.

`C=CCN(C(=O)c1sc2nc(-c3cccnc3)ccc2c1N)c1ccc(I)cc1` [Example 12, N-allyl-3-amino-N-(4-iodophenyl)-6-(3-pyridinyl)thieno[2,3-b]pyridine-2-carboxamide] and `C=CCN(C(=O)c1sc2nc(-c3cccnc3)ccc2c1N)c1cc(F)ccc1F` [Example 17, N-allyl-3-amino-N-(2,5-difluorophenyl)-6-(3-pyridinyl)thieno[2,3-b]pyridine-2-carboxamide] are the same in “Activity value (score)” value: 2 for the first, 2 for the second.

`Nc1c(C(=O)Nc2ccc(C(F)(F)F)cc2)sc2nc(-c3cccnc3)ccc12` [Example 29, 3-amino-6-(3-pyridinyl)-N-(4-(trifluoromethyl)phenyl)thieno[2,3-b]pyridine-2-carboxamide] and `Nc1c(C(=O)Nc2cccc(C(F)(F)F)c2)sc2nc(-c3ccncc3)ccc12` [Example 31, 3-amino-6-(4-pyridinyl)-N-(3-(trifluoromethyl)phenyl)thieno[2,3-b]pyridine-2-carboxamide] are the same in “Activity value (score)” value: 1 for the first, 1 for the second.

Going from `COc1cccc(N(CC=C(C)C)C(=O)c2sc3nc(-c4ccncc4)ccc3c2N)c1` [Example 45, 3-amino-N-(3-methoxyphenyl)-N-prenyl-6-(4-pyridinyl)thieno[2,3-b]pyridine-2-carboxamide] to `COc1ccc(N(CC=C(C)C)C(=O)c2sc3nc(-c4ccncc4)ccc3c2N)cc1` [Example 46, 3-amino-N-(4-methoxyphenyl)-N-prenyl-6-(4-pyridinyl)thieno[2,3-b]pyridine-2-carboxamide], the “Activity value (score)” value rises from 1 to 2.

Going from `Nc1c(C(=O)N(CC=C2CCCC2)c2ccccc2)sc2nc(-c3cccnc3)ccc12` [Example 40, 3-amino-N-(2-cyclopentylideneethyl)-N-phenyl-6-(3-pyridinyl)thieno[2,3-b]pyridine-2-carboxamide] to `C=C(C)CN(C(=O)c1sc2nc(-c3ccncc3)ccc2c1N)c1ccccc1` [Example 47, 3-amino-N-metallyl-N-phenyl-6-(4-pyridinyl)thieno[2,3-b]pyridine-2-carboxamide], the “Activity value (score)” value rises from 1 to 2.

First: CC(C)=CCN(C(=O)c1sc2nc(-c3ccncc3)ccc2c1N)c1ccc(C(C)(C)C)cc1 [Example 43, 3-amino-N-(4-tert-butylphenyl)-N-(3-methylbut-2-en-1-yl)-6-(4-pyridinyl)thieno[2,3-b]pyridine-2-carboxamide]
Second: C=CCN(C(=O)c1sc2nc(-c3ccncc3)ccc2c1N)c1cc(F)cc(F)c1 [Example 22, N-allyl-3-amino-N-(3,5-difluorophenyl)-6-(4-pyridinyl)thieno[2,3-b]pyridine-2-carboxamide]
The “Activity value (score)” value of the first is lower: 1 for the first, 2 for the second.

First: C=CCN(C(=O)c1sc2nc(-c3cccnc3)ccc2c1N)c1ccc(F)cc1F [Example 15, N-allyl-3-amino-N-(2,4-difluorophenyl)-6-(3-pyridinyl)thieno[2,3-b]pyridine-2-carboxamide]
Second: Nc1c(C(=O)Nc2ccc(OCc3ccccc3)cc2)sc2nc(-c3cccnc3)ccc12 [Example 26, 3-amino-N-[4-(benzyloxy)phenyl]-6-(3-pyridinyl)thieno[2,3-b]pyridine-2-carboxamide]
The “Activity value (score)” value of the first is higher: 2 for the first, 1 for the second.

`Nc1c(C(=O)Nc2ccncc2)sc2nc(-c3cncnc3)ccc12` [Example 33, 3-amino-N-(4-pyridinyl)-6-(5-pyrimidinyl)thieno[2,3-b]pyridine-2-carboxamide] and `Nc1c(C(=O)Nc2ccncc2)sc2nc(-c3ccncc3)ccc12` [Example 32, 3-amino-N-(4-pyridinyl)-6-(4-pyridinyl)thieno[2,3-b]pyridine-2-carboxamide] are the same in “Activity value (score)” value: 1 for the first, 1 for the second.
